Holding throughout (format): cell-based, human
The subject of assay [1] is p-Drp1^S616 in LNCaP cells. Description: Immunoblot of p-Akt^S473 and p-Drp1^S616 after AKT inhibitor. Conditions: Wort 1 μM. On the procedure:
(§1) Immunoblotting: Immunoblotting was performed as described previously. Protein lysates were prepared using a lysis in NP-40 buffer (50 mM Tris-HCl pH 7.4, 150 mM NaCl, 1 mM EDTA, 1 mM EGTA, 1% NP-40) supplemented with protease and phosphatase inhibitor cocktail. Protein content was quantified using a micro BCA protein estimation kit (Thermo Scientific, Waltham, Mass.; Cat #23235). Protein samples were resolved on 4-20% Criterion gels, transferred on nitrocellulose membranes (BioRad, Hercules, Calif.) and subjected to immunoblotting. Membranes were blocked in 5% fat free dry milk (Blotto, Santa Cruz, Dallas, Tex.; Cat #sc-2324) prepared in PBS-T (Tween-20) and incubated overnight in primary antibodies (1:1000 dilution) at 4° C. with continuous shaking. After washing with PBS-T, membranes were incubated in HRP conjugated anti-mouse or anti-rabbit secondary antibody at room temperature for 1 hr. After washing with PBS-T, proteins were detected using Clarity chemiluminescent reagent (BioRad, Hercules, Calif.; Cat #1705061) and X-Ray films (ASI, Fort Lauderdale, Fla.; Cat #XR1570). Membranes were stripped using stripping buffer and probed with HRP conjugated beta-actin antibody to ensure equal loading of proteins.
Background: A western blot detects proteins with antibodies after separation by electrophoresis.

Assay [2] deals with LNCaP cells. Kind of assay: Immunoblot analysis of CC and Drp1 in cytosolic and mitochondrial fractions. To be noted: CA PCa cells. As for the experimental part: Subcellular fractionation for the preparation of cytosolic and mitochondrial fractions: Cells were seeded on 15 cm cell culture plates followed by treatment with various compounds for the preparation of cytosolic and mitochondrial fractions as described. Cells were harvested via gentle scraping, washed twice with ice cold 1×PBS, and resuspended in homogenization buffer (20 mM HEPES, pH 7.4; 10 mM KCl; 1.5 mM MgCl2; 1 mM EDTA; 1 mM EGTA; 250 mM sucrose) supplemented with freshly added 1× protease inhibitor cocktail and 1 mM DTT. Cells were incubated in homogenization buffer for 30 min in ice and homogenized using a dounce homogenizer (˜25 strokes using pestle A). Cell homogenates were pre-cleared of unbroken cells and debris using centrifugation at 1000 g for 10 min. The supernatant was collected in new tubes and centrifuged at 12000 rpm for 20 min to obtain a mitochondrial pellet, which was washed 3 times with homogenization buffer and lysed in NP40 buffer, and stored as the mitochondrial fraction. […]
Immunoblotting: Immunoblotting was performed as described previously. […] Protein content was quantified using a micro BCA protein estimation kit (Thermo Scientific, Waltham, Mass.; Cat #23235). […] After washing with PBS-T, proteins were detected using Clarity chemiluminescent reagent (BioRad, Hercules, Calif.; Cat #1705061) and X-Ray films (ASI, Fort Lauderdale, Fla.; Cat #XR1570). […]

The subject of assay [3] is E006AA cells. Kind of assay: Clonogenic assay. To be noted: exposure of DOC; AA PCa cells. As for the experimental part: (§2) Clonogenic assay: PCa cells were seeded in each well of 6 well cell culture plates. Cells were treated and plates were incubated in a CO2 cell culture incubator for 6 more days. Colonies were fixed in 10% formalin first and stained with 0.5% crystal violet solution. Plates were dried and pictures were captured using a Gel documentation system and Coomassie blue filter (Bio Rad, Hercules, Calif.).

The subject of assay [4] is LNCaP, DU145, PC-3 cells. Description: Clonogenic assay. Conditions: exposure of DOC; CA PCa cells. As for the experimental part: as §2
Assay [5] concerns E006AA cells. Kind of assay: Caspase-3 (DEVDase) activity assay. Conditions: DOC 24 hrs; AA PCa cells compared to CA PCa cells. As for the experimental part:
Caspase-3 (DEVDase) activity assay: PCa cell lysates prepared in NP40 lysis buffer were incubated with DEVD-AFC (caspase-3 substrate) at 37° C. for 90 min in caspase activity assay buffer (50 mM HEPES pH 7.4, 150 mM NaCl, 1% CHAPS, 1 mM EDTA, 1 mM DTT, 50% glycerol). Fluorescence intensity was detected using a Synergy microplate reader at excitation and emission wavelengths of 400 nm and 508 nm, respectively. Arbitrary fluorescence units were normalized with protein content of cell lysates and represented as fold change compared to control groups.

Assay [6] deals with E006AA cells. Description: Cell death quantification, Trypan blue exclusion assay. As for the experimental part: Cell viability assay: PCa cells (5×10^4 cells/well) were seeded on 6-well cell culture plates and incubated with DOC (1-20 nM) for 24 hrs. Floating and attached cells were collected using trypsinization. Live and dead cells were counted under a light microscope using a trypan blue exclusion assay.

The test system of assay [7] is E006AA cells. Description: Cell cycle analysis, PI staining. To be noted: DOC 24 hrs; AA PCa cells. On the procedure: (§3) Cell cycle analysis: Cell cycle phases in LNCaP and E006AA cells were analyzed using Propidium Iodide (PI) staining. Cells were treated with DOC for 24 hrs, fixed in 70% ethanol, stained with PI staining solution (0.1% sodium citrate, 0.2 mg/ml RNAse, 0.05 mg/ml propidium iodide, 0.2% NP 40, 1N HCl), and analyzed using flow cytometry. Data were analyzed using FACS-DIVA software and represented as % cells in each cell cycle phase.

The test system of assay [8] is LNCaP cells. Description: Cell cycle analysis, PI staining. To be noted: DOC 24 hrs; CA PCa cells. On the procedure:
as §3

In assay [9] the test system is E006AA cells. Description: Immunoblot analysis of CC in cytosolic and mitochondrial fractions. Conditions: DOC 24 hrs; AA PCa cells. As for the experimental part:
Subcellular fractionation for the preparation of cytosolic and mitochondrial fractions: Cells were seeded on 15 cm cell culture plates followed by treatment with various compounds for the preparation of cytosolic and mitochondrial fractions as described. Cells were harvested via gentle scraping, washed twice with ice cold 1×PBS, and resuspended in homogenization buffer (20 mM HEPES, pH 7.4; 10 mM KCl; 1.5 mM MgCl2; 1 mM EDTA; 1 mM EGTA; 250 mM sucrose) supplemented with freshly added 1× protease inhibitor cocktail and 1 mM DTT. Cells were incubated in homogenization buffer for 30 min in ice and homogenized using a dounce homogenizer (˜25 strokes using pestle A). Cell homogenates were pre-cleared of unbroken cells and debris using centrifugation at 1000 g for 10 min. The supernatant was collected in new tubes and centrifuged at 12000 rpm for 20 min to obtain a mitochondrial pellet, which was washed 3 times with homogenization buffer and lysed in NP40 buffer, and stored as the mitochondrial fraction. The supernatant was ultra-centrifuged to obtain purified cytosol.
as §1

Regarding `COC[C@H]1OC(=O)c2coc3c2[C@@]1(C)C1=C(C3=O)[C@@H]2CCC(=O)[C@@]2(C)C[C@H]1OC(C)=O` [wortmanin], the “Drp1 phosphorylation at S616” value in [1] is listed as “Inhibition of Drp1 phosphorylation at S616”.
As for `CC(=O)O[C@@]12CO[C@@H]1C[C@H](O)[C@@]1(C)C(=O)[C@H](O)C3=C(C)[C@@H](OC(=O)[C@H](O)[C@@H](NC(=O)OC(C)(C)C)c4ccccc4)C[C@@](O)([C@@H](OC(=O)c4ccccc4)[C@H]21)C3(C)C` [DOC, Docetaxel], the “CC expression and release from mitochondria to cytosol” value in assay [2] (DOC 24 hrs) is “induced CC expression and release from mitochondria to the cytosolic compartment”; in assay [9], “not in AA PCa cells”. In addition, the Drp1 localization result in [2] (in response to DOC) is “translocated to mitochondria”. Moreover, the “colony forming ability (CFA)” value in assay [3] is listed as “not AA PCa”; in assay [4], “abolished CFA”. For the same compound, in [5], the DOC-induced caspase activation entry is “reduced in various AA PCa cells compared to CA PCa cells”. In assay [6] (DOC 24 hrs, AA PCa cells compared to CA PCa cells), the DOC-induced cell death entry is recorded as “reduced in various AA PCa cells compared to CA PCa cells”. The “effect on the cell cycle” value in assay [7] and in assay [8] was “cell cycle arrest at G2/M phase” each time.
In the case of `O=C(O)C(=O)CBr` [3-BrPA, 3-bromopyruvate], the cell death result in [6] (in combination with DOC (24 hrs)) is given as “induced dose-dependent cell death”.

(Values after patent publication US20220088031A1, “METHODS AND COMPOSITIONS FOR TREATING RESISTANT AND RECURRENT FORMS OF CANCER” (Health Research, Inc., priority 2019, published 2022).)
